Test results published in publication PMC3130785, “Small Compound 6-O-Angeloylplenolin Induces Mitotic Arrest and Exhibits Therapeutic Potentials in Multiple Myeloma” (PLoS ONE, 2011).

Experiments:
PDK-1 = experiment: Western blotting, IGF-I stimulation; format: cell-based, human; settings: MM.1S; IGF-I 50 ng/ml
Protocol: (§1) Cell pellets were lysed in RIPA buffer containing 50 mM Tris pH 8.0, 150 mM NaCl, 0.1% SDS, 0.5% deoxycholate, 1% NP-40, 1 mM DTT, 1 mM NaF, 1 mM sodium vanadate, and protease inhibitors cocktail (Sigma). For immunoprecipitations, cells were lysed on ice for 15 minutes in RIPA buffer. Lysates were centrifuged. The supernatant was incubated with indicated antibodies overnight, after which protein A/G Plus beads (Santa Cruz Biotechnology) were added and incubated for 3 h. The beads were washed 4 times in RIPA buffer. Then the beads were resuspended in 1× sample buffer and boiled for 3 min. Protein extracts were quantitated and loaded on 8% to 12% sodium dodecyl sulfate polyacrylamide gel, electrophoresed, and transferred to a nitrocellulose membrane (Whatman). The membrane was incubated with primary antibody, washed, and incubated with horseradish peroxidase (HRP)–conjugated secondary antibody (Pierce). Detection was performed by using a chemiluminescent western detection kit (Cell Signaling). […]
(§2) Figure 5 6-OAP overcomes the protective effects of IL-6, IGF-I and BMSCs on MM cells. […] Cell proliferation was assessed by MTT assay. […] Cell proliferation was assessed by MTT assay. *p<.01,** p<.05. […]

pAkt = experiment: Western blotting, IGF-I stimulation; format: cell-based, human; settings: MM.1S; 6-OAP 7.5 µM for 12 h; IGF-I 50 ng/ml
Protocol: as §1, §2

Staphylococcus aureus = tested on: Staphylococcus aureus; set-up: method as in PMID 9461679, PMID 8657743, PMID 12521264; settings: cited from earlier work

CC=C(C)C(=O)OC1C2C(CC(C)C3C=CC(=O)C31C)OC(=O)C2C (stereo not drawn) [6-OAP, 6-O-angeloylplenolin]
phosphorylation of PDK-1 (PDK-1): not affected
IGF-I-induced pAkt expression (pAkt): inhibited
antibacterial activity (Staphylococcus aureus): exhibit antibacterial activity
